Tests used:
Format in all cases: in vivo
panelists [1] = assay: Confirmation of umami in water (point score); conditions: average point of 10 panelists, 0 no difference from control (water), 1 somewhat stronger, 2 stronger, 3 considerably stronger, 4 poor taste balance
Experimental: As a comparative product, a solution was prepared by dissolving the comparative product 1 (2-(2-benzyloxyethyl)pyridine) to have the same concentration. Water with no addition was prepared as a control product. Well-trained 10 panelists tasted the solutions prepared by dissolving any the invention products 1 to 6 and the comparative product 1 for organoleptic evaluation of umami.
Umami evaluation was based on the control product of water.

panelists [2] = assay: Confirmation of umami imparting and saltiness enhancing effect in 0.3 mass % sodium chloride (evaluation in words); conditions: average of 5 panelists, Example 108
Experimental: An aqueous 0.3 mass % sodium chloride solution (control), and solutions of 2-(3-benzyloxypropyl)pyridine dissolved in a 0.3 mass % sodium chloride solution to have the concentration shown in Table 17 were prepared. As comparative products, an aqueous 0.3 mass % sodium chloride solution (control), and a solution of a comparative product, 2-(2-benzyloxyethyl)pyridine dissolved in a 0.3 mass % sodium chloride solution to have the same concentration were prepared. Well-trained 5 panelists tasted the solutions for organoleptic evaluation of umami impartment and saltiness enhancement.
An aqueous 0.3 mass % sodium chloride solution (control), and solutions of the invention product 201 or the reference product 202 dissolved in a 0.3 mass % sodium chloride solution to have the concentration as 2-(3-benzyloxypropyl)pyridine therein shown in the following Table 23 were prepared. Well-trained 5 panelists tasted the solutions for organoleptic evaluation of umami impartment and saltiness enhancement.

panelists [3] = assay: Confirmation of umami in water (organoleptic evaluation of taste and flavor in words); conditions: average of 5 panelists
Experimental: A solution was prepared by dissolving 2-(3-benzyloxypropyl)pyridine (invention product 101) in water to have a concentration shown in Table 15. As a comparative product, a solution was prepared by dissolving 2-(2-benzyloxyethyl)pyridine (comparative product 1 prepared in Comparative Example 1) to have the same concentration. Well-trained 5 panelists tasted the solutions and non-added water for organoleptic evaluation of taste and flavor.
The invention product 101 and the comparative product 1 were individually diluted with ethanol to have a proper concentration, and then further diluted with water to prepare an aqueous solution of 2-(3-benzyloxypropyl)pyridine (invention product 101 produced in Example 101) and that of 2-(2-benzyloxyethyl)pyridine (comparative product synthesized in Comparative Example 1) each having a concentration shown in the following Table 21. Well-trained panelists tasted the solution having a different concentration and non-added water for organoleptic evaluation in point of taste and flavor. […]

panelists [4] = assay: Confirmation of umami imparting and saltiness enhancing effect in 0.3 mass % sodium chloride (point score); conditions: average point of 10 panelists vs control, 0 no change, 1 slightly higher, 2 higher, 3 considerably higher, 4 extremely higher umami and saltiness, 5 bitter as lacking balance
Experimental: An aqueous 0.3 mass % sodium chloride solution (control), and solutions of the invention products 1 to 6 each dissolved in a 0.3 mass % sodium chloride solution to have the concentration shown in Table 5 were prepared. As a comparative product, a solution was prepared by dissolving the comparative product 1 in 0.3 mass % sodium chloride. Well-trained 10 panelists tasted the solutions for organoleptic evaluation of umami impartment and saltiness enhancement.
Umami and saltiness scores are as follows, based on the aqueous 0.3 mass % sodium chloride solution as a control. Each sample was given any of a point 0, no change from control; 1, slightly higher umami and saltiness than control; 2, higher umami and saltiness than control; 3, considerably higher umami and saltiness than control; 4, extremely higher umami and saltiness than control; and 5, bitter as lacking balance of umami and saltiness.

Structure (SMILES): c1ccc(COCCc2ccccn2)cc1 [comparative product 1, 2-(2-benzyloxyethyl)pyridine, reference compound]
- umami (average point) (panelists [1]; 0.1 ppm in water): 0.8
- umami (average point) (panelists [1]; 1 ppm in water): 1.5
- umami (average point) (panelists [1]; 2 ppb in water): 0.0
- umami (average point) (panelists [1]; 10 ppb in water): 0.1
- umami (average point) (panelists [1]; 20 ppm in water): 2.2
- umami (average point) (panelists [1]; 200 ppm in water): 2.8
- umami (average point) (panelists [1]; 500 ppm in water): 3.3
- umami (average point) (panelists [1]; 2000 ppm in water): 3.8
- Organoleptic Evaluation (umami impartment and saltiness enhancement) (panelists [2]; 0.1 ppm in 0.3 mass % sodium chloride solution): Umami as compared with control.
- Organoleptic Evaluation (umami impartment and saltiness enhancement) (panelists [2]; 10 ppb in 0.3 mass % sodium chloride solution): Slightly umami as compared with control.
- Organoleptic Evaluation Taste (panelists [3]; 0.1 ppm dissolved in water, Example 107): Slightly umami.
- Organoleptic Evaluation Taste (panelists [3]; 0.1 ppm, diluted with ethanol, then with water, Reference Example 201): Slightly umami.
- Organoleptic Evaluation Taste (panelists [3]; 1 ppm dissolved in water, Example 107): Weakly umami.
- Organoleptic Evaluation Taste (panelists [3]; 1 ppm, diluted with ethanol, then with water, Reference Example 201): Weakly umami.
- Organoleptic Evaluation Flavor (panelists [3]; 2 ppb dissolved in water, Example 107): Nothing at all.
- Organoleptic Evaluation Flavor (panelists [3]; 2 ppb, diluted with ethanol, then with water, Reference Example 201): Nothing at all.
- Organoleptic Evaluation Flavor (panelists [3]; 10 ppb dissolved in water, Example 107): Nothing at all.
- Organoleptic Evaluation Flavor (panelists [3]; 10 ppb, diluted with ethanol, then with water, Reference Example 201): Nothing at all.
- Organoleptic Evaluation Taste (panelists [3]; 200 ppm dissolved in water, Example 107): Strongly umami.
- Organoleptic Evaluation Taste (panelists [3]; 200 ppm, diluted with ethanol, then with water, Reference Example 201): Strongly umami.
- umami and saltiness (average point) (panelists [4]; 0.05 ppb in aqueous 0.3 mass % sodium chloride solution): 0.0
- umami and saltiness (average point) (panelists [4]; 0.1 ppb in aqueous 0.3 mass % sodium chloride solution): 0.0
- umami and saltiness (average point) (panelists [4]; 0.1 ppm in aqueous 0.3 mass % sodium chloride solution): 2.1
- umami and saltiness (average point) (panelists [4]; 0.5 ppm in aqueous 0.3 mass % sodium chloride solution): 3.0
- umami and saltiness (average point) (panelists [4]; 1 ppb in aqueous 0.3 mass % sodium chloride solution): 0.6
- umami and saltiness (average point) (panelists [4]; 2 ppm in aqueous 0.3 mass % sodium chloride solution): 3.4
- umami and saltiness (average point) (panelists [4]; 10 ppb in aqueous 0.3 mass % sodium chloride solution): 1.5
- umami and saltiness (average point) (panelists [4]; 10 ppm in aqueous 0.3 mass % sodium chloride solution): 4.2
- umami and saltiness (average point) (panelists [4]; 50 ppm in aqueous 0.3 mass % sodium chloride solution): 4.8

Source: patent US10894772B2, “Flavor modulator having pyridine derivative or salt thereof as active ingredient” (T. HASEGAWA CO., LTD., priority 2015, dated 2021)
